Data on 2 compounds can be found in patent US6699859B1 (dated 2004).

The structures appear in SMILES notation.

Take `Cn1ncnc1COc1nn2c(-c3ccccc3)nnc2c(Cl)c1N1CCCC1`: the melting point – broadly, the temperature of the solid-liquid transition – was in the range of 174.5 to 176 °C.

Take `Cn1cnc(COc2nn3c(-c4cccs4)nnc3c(Cl)c2N2CCOCC2)n1`: the melting point lay within 221.9 to 222.8 °C.
